Reference: patent US20250127790A1, “COMBINATION THERAPY USING VPS34 INHIBITORS” (Deciphera Pharmaceuticals, LLC, priority 2021, published 2025)

How the values were obtained:
[1] = system: A-498 renal cell carcinoma cells; assay: qRT-PCR with siRNA knockdown of STING pathway genes, A-498 cells; assay type: cell-based, Human; conditions: 24 h; for increase in mRNA expression of CCL5 / increase in mRNA expression of CXCL10 / increase in mRNA expression of IFNB1 / increase in mRNA expression of IRF7 / IFNB1, IRF7, CCL5 and CXCL10 expression with siRNA knockdown of CGAS / IFNB1, IRF7, CCL5 and CXCL10 expression with siRNA knockdown of STING: 2 μM; for IFNB1, IRF7, CCL5 and CXCL10 expression with siRNA knockdown of CGAS: siCGAS; for IFNB1, IRF7, CCL5 and CXCL10 expression with siRNA knockdown of CGAS / IFNB1, IRF7, CCL5 and CXCL10 expression with siRNA knockdown of STING / IFNB1, IRF7, CCL5 or CXCL10 expression with siRNA knockdown of TBK1: vs compound alone; for IFNB1, IRF7, CCL5 and CXCL10 expression with siRNA knockdown of STING: siSTING; for IFNB1, IRF7, CCL5 or CXCL10 expression with siRNA knockdown of TBK1: siTBK1, 2 μM
Method: A-498 cells were grown in Minimal Essential Medium containing 10% fetal bovine serum. Cells were then incubated for 2 days at 37 degrees Celsius, 5% CO2, and 95% humidity. A498 cells were transfected with scrambled siRNA control (siSCR) or siRNA targeting TBK1 (siTBK1), STING (siSTING) or CGAS (siCGAS). After 48 h cells were treated with DMSO or 2 μM of VPS34 inhibitor (Compound 1 or Compound 2) for 24 h. Cells were washed with PBS and RNA was isolated using the PureLink RNA kit (#12183018A, Thermo Fisher Scientific) according to the manufacturer's protocol. Genomic DNA was removed using DNA-binding columns (RNeasy plus kit, #74134, Qiagen) and/or DNase treatment (#12185010, Thermo Fisher Scientific). RNA was quantified using NanoDrop (Thermo Fisher Scientific) and 50 ng/μL RNA was used for cDNA synthesis with SuperScript IV VILO Master Mix (#11756050, Thermo Fisher Scientific). Quantitative RT-PCR (qRT-PCR) was run with diluted cDNA (1:25 or 1:12.5), PowerUp SYBR Green Master Mix (#A25741, Thermo Fisher Scientific), and 200 nM primers (see below) on a CFX Connect RT-PCR system (BioRad). Data was analyzed using the ΔΔCT method. Results are mean±SEM of three independent experiments.

4T1 breast cancer cells = assay: Cytokine secretion assay, combination with cGAMP, 4T1 cells; assay type: cell-based, mouse; conditions: 24 hours, 5 μM Compound 1 or 10 μM Compound 2, 10 mg/ml cGAMP
Method: (§1) 4T1 cells were treated for 24 hours with DMSO or VPS34 inhibitors (5 μM Compound 1 or 10 μM Compound 2) in combination with 10 mg/ml STING agonist cGAMP (green bars). Cells were washed with PBS and RNA was isolated using the PureLink RNA kit (#12183018A, Thermo Fisher Scientific) according to the manufacturer's protocol. Genomic DNA was removed using DNA-binding columns (RNeasy plus kit, #74134, Qiagen) and/or DNase treatment (#12185010, Thermo Fisher Scientific). RNA was quantified using NanoDrop (Thermo Fisher Scientific) and 50 ng/μL RNA was used for cDNA synthesis with SuperScript IV VILO Master Mix (#11756050, Thermo Fisher Scientific). Quantitative RT-PCR (qRT-PCR) was run with diluted cDNA (1:25 or 1:12.5), PowerUp SYBR Green Master Mix (#A25741, Thermo Fisher Scientific), and 200 nM primers (see below) on a CFX Connect RT-PCR system (BioRad). Data was analyzed using the ΔΔCT method. Results are mean±SEM of three independent experiments.
(§2) Cell culture medium was centrifuged at 1600 rpm for 10 min at 4° C. and obtained supernatant stored at −80° C. Cytokine levels were quantified using following Meso Scale Discovery (MSD) assays: mouse U-PLEX RANTES/CCL5 (#K152A2K) and U-PLEX IP-10/CXCL10 (#K152UFK). Assays were run on the SECTOR Quickplex Imager and analyzed using Discovery Workbench version 4.0 (MSD).

[2] = system: 786-O renal cell carcinoma cells; assay: Western blot, STING pathway proteins with siRNA knockdown, 786-O cells; assay type: cell-based; conditions: 24 h; for CGAS level / STING level / p-IRF3 level / p-STAT1 level / p-TKB1 level / p-IRF3 and p-STAT1 levels with siRNA knockdown of CGAS / p-TKB1 level with siRNA knockdown of CGAS / p-IRF3 and p-STAT1 levels with siRNA knockdown of STING / p-TBK1 level with siRNA knockdown of STING: 2 μM; for CGAS level / STING level / p-IRF3 level / p-STAT1 level / p-TKB1 level: vs DMSO alone; for p-IRF3 and p-STAT1 levels with siRNA knockdown of CGAS / p-TKB1 level with siRNA knockdown of CGAS: siCGAS; for p-IRF3 and p-STAT1 levels with siRNA knockdown of CGAS / p-TKB1 level with siRNA knockdown of CGAS / p-IRF3 and p-STAT1 levels with siRNA knockdown of STING / p-TBK1 level with siRNA knockdown of STING: vs compound alone; for p-IRF3 and p-STAT1 levels with siRNA knockdown of STING / p-TBK1 level with siRNA knockdown of STING: siSTING; for STING level with siRNA knockdown of TBK1 / CGAS level with siRNA knockdown of TBK1: siTBK1, 2 μM; for CGAS level with siRNA knockdown of TBK1: vs DMSO
Method: 786-O cells were transfected with scrambled siRNA control (siSCR) or siRNA targeting TBK1 (siTBK1), STING (siSTING) or CGAS (siCGAS). After 48 h cells were treated with DMSO or 2 μM of VPS34 inhibitor (Compound 1 or Compound 2) for 24 h. 786-O cells were washed in PBS and lysed in RIPA buffer (50 mM Tris HCl pH=7.4, 150 mM NaCl, 1% Triton X-100, 0.5% Na-deoxycholate, 0.1% SDS) containing protease inhibitor cocktail (#11836170001, Roche), and phosphatase inhibitor (#11836170001, Roche) for 10 min at 4° C. After centrifugation at 15000 rpm for 10 min at 4° C., the supernatant was obtained, and protein concentration was quantified using BCA assay (#23225, Thermo Fisher). Equal amounts were mixed with 0.1 M DTT and LDS Sample Buffer (#84788, Thermo Fisher), heated for 5 min at 90° C. before loading onto 4-12% Bis-Tris gels. Proteins were transferred to nitrocellulose membranes. Membranes were blocked in 5% non-fat dry milk in TBS with 0.05% Tween (TBS-T) for 1 h at RT, washed in TBS-T, and probed with primary antibodies shaking overnight at 4° C. After washing in TBS-T, membranes were incubated with IRDye 800CW goat anti-rabbit or IRDye 680RD donkey anti-mouse IgG (H+L) (#926-32211 and #926-68072, respectively, LI-COR, 1:10,000 dilution) secondary antibody in Intercept blocking buffer (#927-60001, LI-COR) for 1 h at RT. After washing in TBS-T, membranes were imaged using the Odyssey CLx (LI-COR). Band intensities were quantified using Image Studio Lite software version 5.2.5 (LI-COR).

[3] = system: CT26 colorectal cancer cells; assay: Cytokine secretion assay, combination with cGAMP, CT26 cells; assay type: cell-based, mouse; conditions: 24 hours, 5 μM Compound 1 or 10 μM Compound 2, 10 mg/mL cGAMP
Method: as §1, with “CT26” for “4T1”, “mg/mL” for “mg/ml”
as §2

SMILES: C[C@@H]1COCCN1c1cc(=O)n2c(n1)N(Cc1cncc(Cl)c1)[C@H](C(F)(F)F)CC2 [Compound 2, (S)-9-((5-chloropyridin-3-yl)methyl)-2-((R)-3-methylmorpholino)-8-(trifluoromethyl)-6,7,8,9-tetrahydro-4H-pyrimido[1,2-a]pyrimidin-4-one]
- increase in mRNA expression of CCL5 [1]: ~8 fold
- increase in mRNA expression of CXCL10 [1]: ~10 fold
- increase in mRNA expression of IFNB1 [1]: > 10 fold
- increase in mRNA expression of IRF7 [1]: ~7 fold
- IFNB1, IRF7, CCL5 and CXCL10 expression with siRNA knockdown of CGAS [1]: complete ablation
- IFNB1, IRF7, CCL5 and CXCL10 expression with siRNA knockdown of STING [1]: complete ablation
- IFNB1, IRF7, CCL5 or CXCL10 expression with siRNA knockdown of TBK1 [1]: moderate or negligible changes
- CCL5 protein secretion (4T1 breast cancer cells): increased
- CXCL10 protein secretion (4T1 breast cancer cells): increased
- CGAS level [2]: mild increase
- STING level [2]: increase
- p-IRF3 level [2]: strong increases
- p-STAT1 level [2]: strong increases
- p-TKB1 level [2]: increase
- p-IRF3 and p-STAT1 levels with siRNA knockdown of CGAS [2]: complete loss
- p-TKB1 level with siRNA knockdown of CGAS [2]: decrease
- p-IRF3 and p-STAT1 levels with siRNA knockdown of STING [2]: complete loss
- p-TBK1 level with siRNA knockdown of STING [2]: decrease
- STING level with siRNA knockdown of TBK1 [2]: increase
- CGAS level with siRNA knockdown of TBK1 [2]: increase
- CCL5 protein secretion [3]: increased
- CXCL10 protein secretion [3]: increased

SMILES: C[C@@H]1COCCN1c1cc(N2CCCC[C@@H]2C(F)(F)F)[nH]c(=O)c1 [Compound 1, 4-((R)-3-methylmorpholino)-6-((R)-2-(trifluoromethyl)piperidin-1-yl)pyridin-2(1H)-one]
- increase in mRNA expression of CCL5 [1]: > 4 fold
- increase in mRNA expression of CXCL10 [1]: > 5 fold
- increase in mRNA expression of IFNB1 [1]: > 5 fold
- increase in mRNA expression of IRF7 [1]: ~4 fold
- IFNB1, IRF7, CCL5 and CXCL10 expression with siRNA knockdown of CGAS [1]: complete ablation
- IFNB1, IRF7, CCL5 and CXCL10 expression with siRNA knockdown of STING [1]: complete ablation
- IFNB1, IRF7, CCL5 or CXCL10 expression with siRNA knockdown of TBK1 [1]: moderate or negligible changes
- CCL5 protein secretion (4T1 breast cancer cells): increased
- CXCL10 protein secretion (4T1 breast cancer cells): increased
- CGAS level [2]: mild increase
- STING level [2]: increase
- p-IRF3 level [2]: strong increases
- p-STAT1 level [2]: strong increases
- p-TKB1 level [2]: increase
- p-IRF3 and p-STAT1 levels with siRNA knockdown of CGAS [2]: complete loss
- p-TKB1 level with siRNA knockdown of CGAS [2]: decrease
- p-IRF3 and p-STAT1 levels with siRNA knockdown of STING [2]: complete loss
- p-TBK1 level with siRNA knockdown of STING [2]: decrease
- STING level with siRNA knockdown of TBK1 [2]: increase
- CGAS level with siRNA knockdown of TBK1 [2]: increase
- CCL5 protein secretion [3]: increased
- CXCL10 protein secretion [3]: increased
